Measurements: patent US20150119247A1, “Composition and Method for Stress Mitigation in Plants” (Stoller Enterprises, Inc., priority 2011, published 2015)

Columns and labels:
Format in all cases: in vivo
[1] = tested on: field-grown beans (i.e., lima beans); assay: Lima bean field yield, Gustine, CA, 2010; settings: aqueous kinetin solution applied to foliage just prior to flowering at one pint per acre or two pints per acre; up to approx. 35 degrees Celsius
Procedure: In this example, the effect of the plant growth regulator cytokinin, specifically kinetin, applied at the beginning of flowering and two to four weeks thereafter to field-grown beans (i.e., lima beans) in Gustine, Calif. was observed. Growing temperatures up to approximately 35 degrees Celsius were recorded. […] The difference of “t” test of 5% is significant.

[2] = tested on: Arabidopsis thaliana; assay: High temperature seed/silique development, first experiment (FIG. 1)
From the text: These experiments employed the model crop plant, Arabidopsis thaliana, whose genome was mapped as early as the year 2000. To ensure uniformity, the tested plants were selected such that they were in the beginning stages of flowering and had balanced numbers of flowers across groups. The control agent as well as all tested agents were applied in a water solution containing 0.01% Silwet® super spreader (obtained from General Electric) to the leaves and flowers (i.e., foliage) of the tested plants. […] The third and fourth agents tested consisted of 6-benzyl adenine (6-BA) and kinetin (KIN)—both cytokinins—each applied at the rate of 100 μg/1 (0.1 ppm). […] Aqueous solutions of the tested agents prepared to the stated concentrations/doses were sprayed onto test groups of flowers and leaves (i.e., foliage) of Arabidopsis thaliana until runoff at one day prior to heat exposure and again at four days after the beginning of heat exposure. The total duration of heat exposure was fourteen (14) days. […] The seed pods (i.e. siliques), filled with developed seeds (siliques >7 mm long and/or >1 mm wide and/or bearing seeds), were counted just prior to the beginning of the experiment, and again after fourteen (14) days of heat exposure treatments.

[3] = tested on: field-grown corn crops; assay: Field-grown corn treated before the reproductive stage, Weslaco, Tex.: yield and seed size
From the text: In this example, the effect of the plant growth regulator cytokinin, specifically kinetin, and applied at various times before the reproductive stages of growth, was observed. In Table 2, V7, V10, V13, and V16 refer to stages of growth of the corn plant. V7 refers to the growth stage where the collar of the seventh leaf is visible, V10 refers to the growth stage where the collar of the tenth leaf is visible, V13 refers to the growth stage where the collar of the thirteenth leaf is visible, and V16 refers to the growth stage where the collar of the sixteenth leaf is visible. V16 is also just prior to the reproductive stage of growth. The corn crops were grown in Weslaco, Tex. The water levels were either none (i.e., simply rain referred to as dryland), or drip through a “drip tape” (i.e., drip irrigation whereby sufficient water was applied for more optimal growth of the crop). Results are given for yield (measured in bushels per acre), and the weight of the seed (measured in grams per 1,000 kernels). T tests indicate whether there were differences.

[4] = tested on: field corn; assay: Field corn yield trials, Ohio, cytokinin with low potassium; settings: potassium ½ lb. to 1 lb. per acre with cytokinin (X-Cyte) 1 pint per acre; unreplicated field trials over three years
From the text: In this example, the effect of the plant growth regulator/hormone, cytokinin, applied together with low concentrations of potassium, was observed. The cytokinin that was field-applied was X-Cyte, as previously disclosed. In these unreplicated field trials, conducted in Ohio over a three year period, potassium at ½ lb. to 1 lb. per acre and cytokinin at 1 pint per acre were applied to field corn. The average increase in yield attained by applying potassium, in addition to cytokinin, was approximately fifteen (15) bushels per acre.

[5] = EXPT 1, stage V10, variety B25DC25 R80, drip
[6] = EXPT 1, stage V16, variety B25DC25 R80, drip
[7] = EXPT 2, stage V10, variety Asgrow 7573, dry land
[8] = EXPT 3, stage V7, variety H2684162, dry land
[9] = EXPT 3, stage V10, variety H2684162, dry land
[10] = EXPT 3, stage V13, variety H2684162, dry land
[11] = EXPT 3, stage V16, variety H2684162, dry land

**Q.** How did the lima bean yields [1] turn out when `c1coc(CNc2ncnc3[nH]cnc23)c1` [kinetin] was run?
**A.** increased significantly

**Q.** What about the “number of seeds (i.e., siliques)” value ([2]; 100 μg/l (0.1 ppm) sprayed on foliage 1 day before and 4 days after start of heat, 14 days at 33-36 degrees Celsius days) of the same compound?
**A.** increased number of seeds

**Q.** And the “1,000 Kernel wt g” value [3, 5]?
**A.** 298 g

**Q.** And the “Yield Bu/acre” value [3, 5]?
**A.** 259 Bu/acre

**Q.** And the “1,000 Kernel wt g” value [3, 6]?
**A.** 298 g

**Q.** And the “Yield Bu/acre” value [3, 6]?
**A.** 311 Bu/acre

**Q.** And the “1,000 Kernel wt g” value [3, 7]?
**A.** 244 g

**Q.** And the “Yield Bu/acre” value [3, 7]?
**A.** 149 Bu/acre

**Q.** And the “1,000 Kernel wt g” value [3, 8]?
**A.** 295 g

**Q.** What about the “Yield Bu/acre” value [3, 8] of the same compound?
**A.** 212 Bu/acre

**Q.** And the “1,000 Kernel wt g” value [3, 9]?
**A.** 296 g

**Q.** And the “Yield Bu/acre” value [3, 9]?
**A.** 211 Bu/acre

**Q.** What about the “1,000 Kernel wt g” value [3, 10] of the same compound?
**A.** 299 g

**Q.** And the “Yield Bu/acre” value [3, 10]?
**A.** 208 Bu/acre

**Q.** What about the “1,000 Kernel wt g” value [3, 11] of the same compound?
**A.** 296 g

**Q.** What about the “Yield Bu/acre” value [3, 11] of the same compound?
**A.** 207 Bu/acre

**Q.** And the “yield versus untreated control” value ([3]; all treatments (stages V7 to V16, drip and dryland))?
**A.** enhanced yield in a highly significant fashion

**Q.** And the “seed size versus untreated control” value ([3]; dryland conditions (no added water or irrigation))?
**A.** increased seed size in a highly significant fashion

**Q.** How did the “average increase in yield by applying potassium in addition to cytokinin” value [4] turn out when `[K+]` [potassium] was run?
**A.** ~15 bushels per acre

**Q.** How did the “sugar/photosynthate deficiency (plant autophagy)” value ([2]; sucrose solutions of 20 mM and 100 mM sprayed on foliage, 14 days heat exposure) turn out when `OC[C@H]1O[C@@](CO)(O[C@H]2O[C@H](CO)[C@@H](O)[C@H](O)[C@H]2O)[C@@H](O)[C@@H]1O` [sucrose] was run?
**A.** alleviated the sugar/photosynthate deficiency
